Read-outs that look alike come from different tables or passages of the source.
Assay: Preliminary pharmacokinetics in trial 1403-0001 (Arm A D1 q3w, Arm B D1 D8 q4w)
Format: in vivo, human
Details: for % AUCtz-∞ / AUC0-∞, norm / CL/F / Cmax, norm / AUC(0-inf) / Cmax / Vd/F / half-life: gMean; for Cmax, norm (gMean) / % AUCtz-∞ (gMean) / AUC0-∞, norm, gMean (gCV [%]) / CL/F (gMean): Arm A D1 q3w; for AUC(0-inf) / Cmax / Vd/F / half-life / Tmax: human, plasma, oral; for AUC(0-inf): read-out: AUC0-∞; for Cmax: read-out: Cmax; for Vd/F: read-out: Vz/F; for half-life: read-out: t1/2 (converted); for Tmax: median, read-out: tmax
Source text: Preliminary PK data were available from the first 45 treated patients in study 1403-0001. The exploratory PK analysis is based on planned blood sampling time-points and the results are subject to change because not all samples from these patients have been analyzed yet. Therefore, AUCs may be incomplete. In addition, information on the absorption, distribution, and elimination of the MDM2 antagonist of formula I are descriptive given the limited exploratory PK results available up to this point in time.
Consequently the preliminary PK results support the dose selection of 45 mg (and alternatively even of 30 mg) combined with the once in three weeks (D1 q3w) dose regimen. The tmax of the MDM2 antagonist of formula I is generally between 4 and 6 hours after tablet intake.

[1] = 5 mg, Day 1, D1 D8 q4w (Arm B), N=3
[2] = 5 mg, Day 8, D1 D8 q4w (Arm B), N=3
[3] = 10 mg, Day 1, D1 D8 q4w (Arm B), N=3
[4] = 10 mg, Day 8, D1 D8 q4w (Arm B), N=3
[5] = 15 mg, Day 1, D1 D8 q4w (Arm B), N=3
[6] = 15 mg, Day 8, D1 D8 q4w (Arm B), N=2
[7] = 20 mg, Day 1, D1 D8 q4w (Arm B), N=3
[8] = 20 mg, Day 8, D1 D8 q4w (Arm B), N=3
[9] = 30 mg, Day 1, D1 D8 q4w (Arm B), N=4
[10] = 30 mg, Day 8, D1 D8 q4w (Arm B), N=3
[11] = 45 mg, Day 1, D1 D8 q4w (Arm B), N=2
[12] = 60 mg, Day 1, D1 D8 q4w (Arm B), N=2

In the case of `Cc1c(C(=O)O)ccc2c3n(nc12)[C@@H]1[C@H](C3)N(CC2CC2)[C@@]2(C(=O)Nc3cc(Cl)ccc32)[C@H]1c1cccc(Cl)c1F` [MDM2-antagonist of formula I, (2′S,3′S,3a'S,10a'S)-6-chloro-3′-(3-chloro-2-fluorophenyl)-1′-(cyclopropylmethyl)-6′-methyl-2-oxo-1,2,3′,3a′,10′,10a′-hexahydro-1′H-spiro[indole-3,2′-pyrrolo[2′,3′:4,5]pyrrolo[1,2-b]indazole]-7′-carboxylic acid], the “% AUCtz-∞” value [1] is reported as 10.2%, the “AUC0-∞, norm” value [1] is reported as 3530 nmol·h/L/mg and the CL/F [1] is reported as 7.99 mL/min. The “Cmax, norm” value [1] was 51.9 nmol/L/mg, the “% AUCtz-∞” value [2] was 30.2% and the “AUC0-∞, norm” value [2] was 3860 nmol·h/L/mg. The CL/F [2] was 7.31 mL/min, the “Cmax, norm” value [2] was 67.2 nmol/L/mg and the “% AUCtz-∞” value [3] was 10.8%. For the same compound, the “AUC0-∞, norm” value [3] was 5230 nmol·h/L/mg, the CL/F [3] was 5.39 mL/min and the “Cmax, norm” value [3] was 63.8 nmol/L/mg. For the same compound, the “% AUCtz-∞” value [4] was 31.6%, the “AUC0-∞, norm” value [4] was 4840 nmol·h/L/mg and the CL/F [4] was 5.82 mL/min. The “Cmax, norm” value [4] was 71.4 nmol/L/mg, the “% AUCtz-∞” value [5] was 2.89% and the “AUC0-∞, norm” value [5] was 2520 nmol·h/L/mg. For the same compound, the CL/F [5] was 11.2 mL/min, the “Cmax, norm” value [5] was 55.4 nmol/L/mg and the “% AUCtz-∞” value [6] was 14.8%. For the same compound, the “AUC0-∞, norm” value [6] was 1720 nmol·h/L/mg, the CL/F [6] was 16.4 mL/min and the “Cmax, norm” value (15 mg, Day 8, D1 D8 q4w (Arm B), N=3) was 51.7 nmol/L/mg. The “% AUCtz-∞” value [7] was 8.63%, the “AUC0-∞, norm” value [7] was 4440 nmol·h/L/mg and the CL/F [7] was 6.34 mL/min. For the same compound, the “Cmax, norm” value [7] was 68.4 nmol/L/mg, the “% AUCtz-∞” value [8] was 25.9% and the “AUC0-∞, norm” value [8] was 3050 nmol·h/L/mg. The CL/F [8] was 9.22 mL/min, the “Cmax, norm” value [8] was 60.9 nmol/L/mg and the “% AUCtz-∞” value [9] was 6.72%. For the same compound, the “AUC0-∞, norm” value [9] was 2660 nmol·h/L/mg, the CL/F [9] was 10.6 mL/min and the “Cmax, norm” value [9] was 48.0 nmol/L/mg. The “% AUCtz-∞” value [10] was 18.9%, the “AUC0-∞, norm” value [10] was 2160 nmol·h/L/mg and the CL/F [10] was 13.0 mL/min. For the same compound, the “Cmax, norm” value [10] was 44.3 nmol/L/mg, the “% AUCtz-∞” value [11] was 4.72% and the “AUC0-∞, norm” value [11] was 2150 nmol·h/L/mg. The CL/F [11] was 13.1 mL/min, the “Cmax, norm” value [11] was 51.7 nmol/L/mg and the “% AUCtz-∞” value [12] was 7.08%. For the same compound, the “AUC0-∞, norm” value [12] was 1460 nmol·h/L/mg, the CL/F [12] was 19.3 mL/min and the “Cmax, norm” value [12] was 32.7 nmol/L/mg. For the same compound, the “Cmax, norm” value (60 mg, Day 8, D1 D8 q4w (Arm B), N=2) was 31.5 nmol/L/mg, the “Cmax, norm (gMean)” value (20 mg, N=2) was 58.2 nmol/L/mg and the “% AUCtz-∞ (gMean)” value (30 mg, N=3) was 24.6%. For the same compound, the “AUC0-∞, norm, gMean (gCV [%])” value (30 mg, N=3) was 3760 (46.8) nmol*h/L/mg, the “CL/F (gMean)” value (30 mg, N=3) was 7.50 mL/min and the “Cmax, norm (gMean)” value (30 mg, N=3) was 96.4 nmol/L/mg. For the same compound, the “% AUCtz-∞ (gMean)” value (45 mg, N=6) was 29.2%, the “AUC0-∞, norm, gMean (gCV [%])” value (45 mg, N=6) was 3040 (53.6) nmol*h/L/mg and the “CL/F (gMean)” value (45 mg, N=6) was 9.28 mL/min. For the same compound, the “Cmax, norm (gMean)” value (45 mg, N=6) was 60.2 nmol/L/mg, the “% AUCtz-∞ (gMean)” value (50 mg, N=4) was 19.7% and the “AUC0-∞, norm, gMean (gCV [%])” value (50 mg, N=4) was 6280 (37.3) nmol*h/L/mg. For the same compound, the “CL/F (gMean)” value (50 mg, N=4) was 4.49 mL/min, the “Cmax, norm (gMean)” value (50 mg, N=4) was 74.8 nmol/L/mg and the “% AUCtz-∞ (gMean)” value (60 mg, N=6) was 3.71%. For the same compound, the “AUC0-∞, norm, gMean (gCV [%])” value (60 mg, N=6) was 2710 (33.4) nmol*h/L/mg, the “CL/F (gMean)” value (60 mg, N=6) was 10.4 mL/min and the “Cmax, norm (gMean)” value (60 mg, N=7) was 54.5 nmol/L/mg. For the same compound, the “% AUCtz-∞ (gMean)” value (80 mg, N=2) was 2.54%, the “AUC0-∞, norm, gMean (gCV [%])” value (80 mg, N=2) was 2570 (29.2) nmol*h/L/mg and the “CL/F (gMean)” value (80 mg, N=2) was 11.0 mL/min. For the same compound, the “Cmax, norm (gMean)” value (80 mg, N=2) was 49.2 nmol/L/mg, the AUC(0-inf) [1] was 17.6 µM·h and the Cmax [1] was 260 nM. It also gave a Vd/F [1] of 38.2 L, a half-life [1] of 55.3 h and a Tmax [1] of 4 h. It also gave an AUC(0-inf) [2] of 19.3 µM·h, a Cmax [2] of 336 nM and a Vd/F [2] of 29.2 L. It also gave a half-life [2] of 46.2 h, a Tmax [2] of 4 h and an AUC(0-inf) [3] of 52.3 µM·h. For the same compound, the Cmax [3] was 638 nM.
